Data from patent US5401768A, “2,5,6,7-tetranor-4,8-inter-m-phenylene PGI2, derivative, manufacturing process thereof and its use” (Toray Industries, Inc., priority 1987, dated 1995).
In brackets after ≈: the same amount, converted by molar mass. Like-named read-outs stand apart in the source and are kept apart here.

What was measured:
[1] = tested on: pressure of carotid arteries; experiment: Hypotensive effect (carotid artery pressure, chloralose anesthesia); format: in vivo, Wistar rat (male); settings: Rattus norvegicus, femoral catheter injection, read-out: ED25 mmHg (dose which may reduce the blood pressure by 25 mmHg)
Experimental: Under chloralose anesthesia, catheter was inserted to carotid arteries of Wistar rat (male). The catheter was connected to a polygraph via pressure transducer to measure the pressure of carotid arteries. The compound was injected via catheter connected to a femoral articles. The dose which may reduce the blood pressure by 25 mmHg from the dose-response curve was designated as ED25. The effectiveness of each compound was compared based on it.

[2] = tested on: ulcer index (corpus of stomack); experiment: Cytoprotection (0.2N NaOH-induced gastric lesions, oral compound); format: in vivo; settings: 30 minutes before oral 0.2N NaOH, read-out: ED50 (dose by which the ulcer index decreased to 50% of control)
Experimental: According to the method by A. Robert (Gartroerterolegy, 77(3), 443 (1979)), 30 minutes after oral administration of the compound, 0.2N NaOH was administered orally to the animals. After an hour, the animal was sacrified by chloroform anesthesia and the stomack was removed and fixed in 5% formalin solution. After fixation, the stomack was cut along the great curvature. A total length of blooding spot appearing on the corpus of stomack was measured and served as the ulcer index. When the ulcer index of the control group is taken as 100%, the dose of the compound by which the ulcer index decreased to 50% is designated as ED50.

gastric acid secretion [3] = experiment: Gastric acid secretion-inhibiting action by pylorus ligation (Shay's method); format: in vivo; settings: Rattus norvegicus, injected into duodenum, 5 hours, 5 animals in a group
Experimental: Gastric acid secretion-inhibiting action by pylorus ligation
According to the Shay's method (Gastroeuterology 5, 43 (1945)), median section was performed on abdomen of the rat under ether anesthesia and pylorus was ligated with thread. At the same time, the compound was injected into duodenum and then the incision was closed. After 5 hours, the abdomen was incised again and whole stomach was removed after ligating esophagus. The great curvature of the stomack was incised and the content was transferred to a graduated centrifuge tube. After centrifugation at 3000 rpm for 10 minutes, the volume of the gastric juice was measured. A part of the supernatant was sampled and was titrated with 0.1N NaOH until the pH became 7 using pH star (commercially available from Radio Meter Co., Ltd.).

gastric acid secretion [4] = experiment: Gastric acid secretion-inhibiting action (pentagastrin-stimulated, perfused stomach); format: in vivo, Male SD rat; settings: PGE2 = 1; pentagastrin 0.05 μg/kg/min; femoral vein injection; area under pH curve
Experimental: Gastric acid secretion-inhibiting action
Male SD rat was incised in the abdomen under urethane anesthesia to open a hole at lumen of stomach. A double cannula was inserted from the hole and physiological saline was perfused in the stomack. The gastric acid flowed out was monitored by a pH meter (M. Chosh, H. Schild Br.J. Pharmacol 13, 54 (1958)). When the pH of the gastric acid was stabilized to about 4 after stimulation with continuous injection of pentagastrin at a rate of 0.05 μg/kg/min, the compound was injected through the femoral vein. As an index of the gastric acid secretion-inhibiting effect was measured using area enclosed by the curve from the point at which the pH started to increase by the gastric acid secretion-inhibiting effect to the point at which the pH is come back to the baseline. The relative effectiveness of gastric acid secretion-inhibiting effect of a compound was expressed when the value of PGE2 is 1, and the effectiveness of each compound was compared.

platelet aggregation = experiment: Platelet aggregation-inhibiting action (ADP-induced, platelet-rich plasma); format: cell-based; settings: ADP 10 μM, compound added 1 minute before ADP, human PRP, read-out: IC50 (concentration which inhibits 50% platelet aggregation)
Experimental: Blood taken from human median cubital vein was centrifuged at 800 rpm for 10 minutes and the upper part was collected as platelet-rich plasma (PRP). PRP was put into small test tubes and […] (ADP) was added thereto (final concentration of 10 μM) to induce platelet aggregation. The degree of platelet aggregation was measured as the change of turbidity determined by using a platelet aggregation measuring apparatus (commercially available from Rikadenki Co., Ltd., Tokyo). The compound was added 1 minute before the addition of ADP. The concentration which inhibits 50% aggregation was designated as IC50.

[5] = level of the acid (mEq/ml), read-out: ED50 Gastric Acid
[6] = volume decreased to 50% of control, read-out: ED50 Volume of Gastric Juice

Structure (SMILES)	ED (25 mmHg) [1] [mg/kg]	ED50 [2] [mg/kg]	ED50 (gastric acid secretion [3]; [5]) [mg/kg]	ED50 (gastric acid secretion [3]; [6]) [mg/kg]	Relative Effectiveness to PGE2 (gastric acid secretion inhibition) (gastric acid secretion [4])	IC50 (platelet aggregation) [ng/mL]
CCCCC[C@H](O)/C=C/[C@@H]1[C@H]2c3cccc(CCC(=O)O)c3O[C@H]2C[C@H]1O (relative stereo) [Compound 42, 2,5,6,7-tetranor-4,8-inter-m-phenylene PGI2]	0.00046	0.0486	3.8	4.6	3.6	5.8 (≈ 0.0155 µM)
CCCCCC[C@H](O)/C=C/[C@@H]1[C@H]2c3cccc(CCC(=O)O)c3O[C@H]2C[C@H]1O (relative stereo) [Compound 45, 20a-homo-2,5,6,7-tetranor-4,8-inter-m-phenylene PGI2]	–	–	–	–	3.5	–
CCCCC(C)(C)[C@H](O)/C=C/[C@@H]1[C@H]2c3cccc(CCC(=O)O)c3O[C@H]2C[C@H]1O (relative stereo) [Compound 48, 16,16-dimethyl-2,5,6,7-tetranor-4,8-inter-m-phenylene PGI2]	0.00084	0.0023	0.63	6.3	–	1000 (≈ 2.48 µM)
O=C(O)CCc1cccc2c1O[C@H]1C[C@@H](O)[C@H](/C=C/[C@@H](O)C3CCCCC3)[C@@H]21 (relative stereo) [Compound 60, 15-cyclohexyl-2,5,6,7,16,17,18,19,20-nonanor-4,8-inter-m-phenylene PGI2]	0.00017	0.00679	2.39	1.19	1.3	3.8 (≈ 0.00983 µM)
O=C(O)CCc1cccc2c1O[C@H]1C[C@@H](O)[C@H](/C=C/[C@@H](O)c3ccccc3)[C@@H]21 (relative stereo) [Compound 71, 15-phenyl-2,5,6,7,16,17,18,19,20-nonanor-4,8-inter-m-phenylene PGI2]	0.00026	0.0015	0.034	0.045	7.1	2.85 (≈ 0.00749 µM)
CCCOC[C@H](O)/C=C/[C@@H]1[C@H]2c3cccc(CCC(=O)O)c3O[C@H]2C[C@H]1O (relative stereo) [Compound 101, 2,5,6,7-tetranor-17-oxa-4,8-inter-m-phenylene PGI2]	0.0015	0.0789	0.9	1.4	4.9	–
CCOCC(C)(C)[C@H](O)/C=C/[C@@H]1[C@H]2c3cccc(CCC(=O)O)c3O[C@H]2C[C@H]1O (relative stereo) [Compound 108, 16,16-dimethyl-2,5,6,7-tetranor-18-oxa-4,8-inter-m-phenylene PGI2]	–	0.0035	2.02	> 10	7.0	–
O=C(O)CCc1cccc2c1O[C@H]1C[C@@H](O)[C@H](/C=C/[C@@H](O)COc3ccccc3)[C@@H]21 (relative stereo) [Compound 120, 16-phenoxy-2,5,6,7,17,18,19,20-octanor-4,8-inter-m-phenylene PGI2]	0.00051	0.00456	0.11	0.3	54	1000 (≈ 2.44 µM)
CC(C)(Oc1ccccc1)[C@H](O)/C=C/[C@@H]1[C@H]2c3cccc(CCC(=O)O)c3O[C@H]2C[C@H]1O (relative stereo) [Compound 124, 16-methyl-16-phenoxy-2,5,6,7,18,19,20-heptanor-4,8-inter-m-phenylene PGI2]	0.0013	0.003	0.19	0.75	62	–
CCCCC(C)[C@H](O)/C=C/[C@@H]1[C@H]2c3cccc(CCC(=O)O)c3O[C@H]2C[C@H]1O (some centres unmarked) [Compound 51, 16-methyl-2,5,6,7-tetranor-4,8-inter-m-phenylene PGI2]	0.00011	0.00046	0.21	0.36	35	–
CCC[C@H](C)C[C@H](O)/C=C/[C@@H]1[C@H]2c3cccc(CCC(=O)O)c3O[C@H]2C[C@H]1O [Compound 54, 17-(S)-methyl-2,5,6,7-tetranor-4,8-inter-m-phenylene PGI2]	0.00078	0.00086	0.11	0.015	6.1	3.2 (≈ 0.00824 µM)
CCCCC[C@H](O)/C=C/[C@H]1[C@H](O)CC(=O)[C@@H]1C/C=C\CCCC(=O)O [PGE2, reference compound]	–	–	–	–	1	–
